Measurements from ChEMBL document CHEMBL6083204, “Synthesis of a celastrol derivative as a cancer stem cell inhibitor through regulation of the STAT3 pathway for treatment of ovarian cancer” (RSC Med Chem, 2024).
Active and inactive are the calls of the source. No cut-off for these calls is given here.

What was measured:
A2780 [1] = assay: Induction of cell cycle arrest in human A2780 cells assessed as accumulation of cells at G2/M phase at 0.2 uM incubated for 24 hrs by BrdU staining based flow cytometry (reference value: 6.2 %); format: functional
[2] = target: Signal transducer and activator of transcription 3 (Homo sapiens) (UniProt P40763); assay: Inhibition of STAT3 in human A2780 cells assessed as downregulation of cytoplasmic STAT3 phosphorylation at Ser727 residue at 0.2 uM incubated for 24 hrs by Hoechst33342 staining based immunofluorescence assay; format: cell-based
SK-OV-3 [3] = assay: Inhibition of colony formation in human SK-OV-3 cells assessed as reduction in colony number incubated for 10 days by crystal violet staining based analysis; format: functional, cell-based; details: time 10.0 day
SK-OV-3 [4] = assay: Induction of cell cycle arrest in human SK-OV-3 cells assessed as accumulation of cells at G2/M phase at 0.4 uM incubated for 24 hrs by BrdU staining based flow cytometry (reference value: 6.3 %); format: functional
SK-OV-3 [5] = assay: Induction of apoptosis in human SK-OV-3 cells assessed as viable cells at 0.2 uM incubated for 24 hrs by Annexin V-FITC/7-AAD staining based flow cytometry (reference value: 94.6 %); format: functional; details: read-out: Activity
SK-OV-3 [6] = assay: Induction of cell cycle arrest in human SK-OV-3 cells assessed as accumulation of cells at G2/M phase at 0.8 uM incubated for 24 hrs by BrdU staining based flow cytometry (reference value: 6.3 %); format: functional
[7] = Toxicity in BALB/c mouse xenografted with human SK-OV-3 cells assessed as pathological change in liver at 2 to 5 mg/kg,ip administrated for 21 consecutive days by hematoxylin and eosin staining based assay; format: organism-based; details: in vivo, dose 2-5 mg/kg
[8] = target: Signal transducer and activator of transcription 3 (Homo sapiens) (UniProt P40763); assay: Inhibition of STAT3 in human A2780 cells assessed as downregulation of cytoplasmic STAT3 phosphorylation at Tyr705 residue at 0.2 uM incubated for 24 hrs by Hoechst33342 staining based immunofluorescence assay; format: cell-based
SK-OV-3 [9] = assay: Induction of apoptosis in human SK-OV-3 cells assessed as early apoptotic cells at 0.8 uM incubated for 24 hrs by Annexin V-FITC/7-AAD staining based flow cytometry (reference value: 1.6 %); format: functional
A2780 [10] = assay: Induction of ROS production in human A2780 cells assessed as increase in fluorescence intensity incubated for 24 hrs by DCFH-DA staining based flow cytometry; format: functional, cell-based
A2780 [11] = assay: Induction of apoptosis in human A2780 cells assessed as viable cells at 0.8 uM incubated for 24 hrs by Annexin V-FITC/7-AAD staining based flow cytometry (reference value: 95 %); format: functional; details: read-out: Activity
SK-OV-3 [12] = assay: Antiproliferative activity against human SK-OV-3 cells assessed as inhibition of cell growth incubated for 72 hrs by MTT assay; format: functional, cell-based; details: SK-OV-3, 72 h
A2780 [13] = assay: Induction of apoptosis in human A2780 cells assessed as increase in caspase-3 activity at 0.8 uM incubated for 24 hrs by flow cytometry (reference value: 1.5 %); format: functional
SK-OV-3 [14] = assay: Induction of apoptosis in human SK-OV-3 cells assessed as increase in caspase-8 activity at 0.8 uM incubated for 24 hrs by flow cytometry (reference value: 2.5 %); format: functional
A2780 [15] = assay: Induction of apoptosis in human A2780 cells assessed as early apoptotic cells at 0.2 uM incubated for 24 hrs by Annexin V-FITC/7-AAD staining based flow cytometry (reference value: 1.9 %); format: functional
[16] = target: Tyrosine-protein kinase JAK1 (Homo sapiens) (UniProt P23458); assay: Inhibition of JAK1 in human SK-OV-3 cells assessed as downregulation of JAK1 phosphorylation at 0.1 to 0.4 uM incubated for 24 hrs by Western blotting analysis; format: cell-based; details: dose 0.1-0.4 µM
[17] = Toxicity in BALB/c mouse xenografted with human SK-OV-3 cells assessed as pathological change in heart at 2 to 5 mg/kg,ip administrated for 21 consecutive days by hematoxylin and eosin staining based assay; format: organism-based; details: in vivo, dose 2-5 mg/kg
[18] = target: Tyrosine-protein kinase JAK1 (Homo sapiens) (UniProt P23458); assay: Inhibition of JAK1 in human SK-OV-3 cells assessed as downregulation of JAK1 expression at 0.1 to 0.4 uM incubated for 24 hrs by Western blotting analysis; format: cell-based; details: dose 0.1-0.4 µM
SK-OV-3 [19] = assay: Induction of apoptosis in human SK-OV-3 cells assessed as late apoptotic cells at 0.8 uM incubated for 24 hrs by Annexin V-FITC/7-AAD staining based flow cytometry (reference value: 3.7 %); format: functional
SK-OV-3 [20] = assay: Induction of apoptosis in human SK-OV-3 cells assessed as early apoptotic cells at 0.2 uM incubated for 24 hrs by Annexin V-FITC/7-AAD staining based flow cytometry (reference value: 1.6 %); format: functional
SK-OV-3 [21] = assay: Induction of cell cycle arrest in human SK-OV-3 cells assessed as accumulation of cells at G0/G1 phase at 0.2 uM incubated for 24 hrs by BrdU staining based flow cytometry (reference value: 59.8 %); format: functional
SK-OV-3 [22] = assay: Antiproliferative activity against human SK-OV-3 cells assessed as decrease in CD44 positive CD24 negative cells expression at 0.4 uM incubated for 24 hrs by FITC staining based flow cytometry (reference value: 85.6 %); format: functional; parameters: scale not given: the % may be the effect or the level left
Mitochondrial membrane = assay: Induction of mitochondrial membrane potential loss in human A2780 cells at 0.4 uM incubated for 24 hrs by JC-1 staining based flow cytometry (reference value: 81 %)
A2780 [23] = assay: Inhibition of cell migration in human A2780 cells assessed as reduction in number of migrated cells at 0.1 to 0.4 uM incubated for 24 hrs by crystal violet staining based transwell assay; format: functional; details: dose 0.1-0.4 µM
SK-OV-3 [24] = assay: Induction of cell cycle arrest in human SK-OV-3 cells assessed as reduction of CDK2 expression at 0.2 uM incubated for 24 hrs by flow cytometry (reference value: 94.4 %); format: functional; parameters: scale not given: the % may be the effect or the level left
SK-OV-3 [25] = assay: Inhibition of cell migration in human SK-OV-3 cells assessed as downregulation of phosphorylated FAK expression at 0.1 to 0.4 uM incubated for 24 hrs by Western blotting analysis; format: functional, cell-based; details: dose 0.1-0.4 µM
SK-OV-3 [26] = assay: Induction of cell cycle arrest in human SK-OV-3 cells assessed as accumulation of cells at G0/G1 phase at 0.8 uM incubated for 24 hrs by BrdU staining based flow cytometry (reference value: 59.8 %); format: functional
A2780 [27] = assay: Induction of cell cycle arrest in human A2780 cells assessed as reduction of Cyclin D1 expression at 0.2 uM incubated for 24 hrs by flow cytometry (reference value: 92.5 %); format: functional; parameters: scale not given: the % may be the effect or the level left
SK-OV-3 [28] = assay: Induction of apoptosis in human SK-OV-3 cells assessed as increase in caspase-3 activity at 0.4 uM incubated for 24 hrs by flow cytometry (reference value: 4.6 %); format: functional
SK-OV-3 [29] = assay: Antitumor activity against human SK-OV-3 cells xenografted in BALB/c mouse assessed as reduction in tumor weight at 5 mg/kg,ip administrated for 21 consecutive days; format: functional, organism-based
SK-OV-3 [30] = assay: Inhibition of human SK-OV-3 cells spheroid formation assessed as reduction in spheroid size at 0.1 to 0.4 uM incubated for 10 days by inverted microscopic analysis; format: functional, cell-based; details: dose 0.1-0.4 µM, time 10.0 day
A2780 [31] = assay: Antiproliferative activity against human A2780 cells assessed as decrease in CD44 positive CD24 negative cells expression at 0.2 uM incubated for 24 hrs by FITC staining based flow cytometry (reference value: 28.13 %); format: functional; parameters: scale not given: the % may be the effect or the level left

Signal transducer and activator of transcription 3 (Homo sapiens), sequence (P40763 whole entry): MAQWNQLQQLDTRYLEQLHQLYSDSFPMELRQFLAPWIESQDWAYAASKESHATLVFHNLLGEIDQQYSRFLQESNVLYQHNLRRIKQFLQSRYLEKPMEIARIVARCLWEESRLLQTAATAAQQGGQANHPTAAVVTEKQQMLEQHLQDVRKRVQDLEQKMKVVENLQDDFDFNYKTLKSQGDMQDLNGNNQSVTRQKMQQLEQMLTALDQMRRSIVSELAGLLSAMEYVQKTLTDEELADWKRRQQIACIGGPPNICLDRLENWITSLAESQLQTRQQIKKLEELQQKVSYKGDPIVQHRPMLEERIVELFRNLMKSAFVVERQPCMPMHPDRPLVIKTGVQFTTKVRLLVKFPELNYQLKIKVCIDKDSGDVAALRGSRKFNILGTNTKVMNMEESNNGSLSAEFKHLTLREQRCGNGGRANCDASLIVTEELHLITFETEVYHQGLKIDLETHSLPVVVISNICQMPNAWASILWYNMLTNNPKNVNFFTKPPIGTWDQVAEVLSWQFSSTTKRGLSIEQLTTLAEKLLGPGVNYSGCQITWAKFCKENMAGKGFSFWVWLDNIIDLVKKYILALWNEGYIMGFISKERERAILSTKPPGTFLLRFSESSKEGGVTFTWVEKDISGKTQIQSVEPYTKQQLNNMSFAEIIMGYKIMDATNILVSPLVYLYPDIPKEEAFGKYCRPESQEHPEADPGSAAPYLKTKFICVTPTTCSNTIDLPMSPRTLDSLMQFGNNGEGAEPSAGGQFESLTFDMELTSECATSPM
Tyrosine-protein kinase JAK1 (Homo sapiens), sequence (P23458 whole entry): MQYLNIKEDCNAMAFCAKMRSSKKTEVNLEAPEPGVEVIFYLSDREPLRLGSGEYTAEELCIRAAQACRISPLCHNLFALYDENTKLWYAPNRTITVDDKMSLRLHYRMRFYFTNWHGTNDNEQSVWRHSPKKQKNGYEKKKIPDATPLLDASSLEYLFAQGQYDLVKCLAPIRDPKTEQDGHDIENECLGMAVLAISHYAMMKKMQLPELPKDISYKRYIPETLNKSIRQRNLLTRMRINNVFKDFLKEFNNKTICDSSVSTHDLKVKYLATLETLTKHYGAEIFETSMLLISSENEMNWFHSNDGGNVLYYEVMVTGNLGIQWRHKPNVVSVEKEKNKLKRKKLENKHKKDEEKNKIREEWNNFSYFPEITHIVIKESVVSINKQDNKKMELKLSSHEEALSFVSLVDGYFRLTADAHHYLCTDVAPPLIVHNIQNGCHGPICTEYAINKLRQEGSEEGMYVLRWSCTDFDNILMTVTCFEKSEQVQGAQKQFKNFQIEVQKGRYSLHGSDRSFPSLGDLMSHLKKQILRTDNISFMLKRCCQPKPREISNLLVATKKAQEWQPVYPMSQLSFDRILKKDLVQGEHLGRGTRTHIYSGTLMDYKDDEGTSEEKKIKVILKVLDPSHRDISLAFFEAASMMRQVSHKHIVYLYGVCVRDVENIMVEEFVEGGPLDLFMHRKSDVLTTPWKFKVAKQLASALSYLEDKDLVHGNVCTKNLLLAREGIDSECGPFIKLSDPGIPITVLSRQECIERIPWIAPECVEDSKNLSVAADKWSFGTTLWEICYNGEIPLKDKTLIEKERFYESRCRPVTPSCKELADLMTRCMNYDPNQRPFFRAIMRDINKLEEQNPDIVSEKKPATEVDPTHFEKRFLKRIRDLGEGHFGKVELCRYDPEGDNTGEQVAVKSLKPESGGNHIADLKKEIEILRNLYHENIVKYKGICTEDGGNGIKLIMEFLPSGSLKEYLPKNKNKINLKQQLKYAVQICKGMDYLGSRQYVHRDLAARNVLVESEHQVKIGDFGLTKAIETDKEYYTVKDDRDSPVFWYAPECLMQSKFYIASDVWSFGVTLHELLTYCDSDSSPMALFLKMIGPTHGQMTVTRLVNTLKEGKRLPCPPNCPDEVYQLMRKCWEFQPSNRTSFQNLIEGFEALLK

- inhibition [2]: Active; Showed Mild Inhibition Activity
- inhibition [8]: Active; Showed Mild Inhibition Activity
- IC50 (SK-OV-3 [12]): 210 nM
- inhibition [16]: Active
- inhibition [18]: Active
- Activity (Mitochondrial membrane): 49.5%
Structure (SMILES): CC1=C(O)C(=O)C=C2C1=CC=C1[C@@]2(C)CC[C@@]2(C)[C@@H]3C[C@](C)(C(=O)N4CCNCC4)CC[C@]3(C)CC[C@]12C
- Activity (A2780 [1]): 4.8%
- inhibition (SK-OV-3 [3]): Dose-dependent-effect
- Activity (SK-OV-3 [4]): 7.4%
- viability at 0.2 µM (SK-OV-3 [5]): 74.2%
- Activity (SK-OV-3 [6]): 18.2%
- Activity [7]: Non-toxic
- Activity (SK-OV-3 [9]): 33.2%
- Activity (A2780 [10]): Dose-dependent-effect
- viability at 0.8 µM (A2780 [11]): 24.5%
- Activity (A2780 [13]): 70.7%
- Activity (SK-OV-3 [14]): 74.7%
- Activity (A2780 [15]): 4.4%
- Activity [17]: Non-toxic
- Activity (SK-OV-3 [19]): 17.4%
- Activity (SK-OV-3 [20]): 17.3%
- Activity (SK-OV-3 [21]): 59.2%
- Activity (SK-OV-3 [22]): 51.67%
- inhibition (A2780 [23]): Active
- Activity (SK-OV-3 [24]): 91.1%
- inhibition (SK-OV-3 [25]): Active
- Activity (SK-OV-3 [26]): 47.7%
- Activity (A2780 [27]): 85.2%
- Activity (SK-OV-3 [28]): 12.6%
- Activity (SK-OV-3 [29]): Active; Showed Moderate Reduction Activity
- inhibition (SK-OV-3 [30]): Active
- Activity (A2780 [31]): 17.97%
